From ChEMBL document CHEMBL1149262, “Monoamine transporter binding, locomotor activity, and drug discrimination properties of 3-(4-substituted-phenyl)tropane-2-carboxylic acid methyl ester isomers” (J Med Chem, 2004)
Calls of active or inactive are those of the source. The calls are words filed in the database; no cut-off is given here.

Key:
Mus musculus [1] = assay: Locomotor activity in CD1 mouse assessed as stimulation at 1 mg/kg, ip after 1 hr relative to control; format: functional; conditions: route intraperitoneal
Mus musculus [2] = assay: Locomotor activity in CD1 mouse assessed as stimulation at 1 mg/kg, ip after 2 hrs relative to control; format: functional; conditions: route intraperitoneal
Mus musculus [3] = assay: Locomotor activity in CD1 mouse assessed as stimulation at 1 mg/kg, ip after 3 hrs relative to control; format: functional; conditions: route intraperitoneal
Mus musculus [4] = assay: Locomotor activity in CD1 mouse assessed as stimulation at 1 mg/kg, ip after 4 hrs relative to control; format: functional; conditions: route intraperitoneal
Rattus norvegicus [5] = assay: Cocaine discrimination in ip dosed CD Albino rat; format: functional
Rattus norvegicus [6] = assay: Drug discrimination effect in CD Albino rat assessed as percent of rat choosing cocaine lever at 3 mg/kg, ip; format: functional; conditions: route intraperitoneal
Rattus norvegicus [7] = assay: Drug discrimination effect in CD Albino rat assessed as percent of rat choosing cocaine lever at 5.6 mg/kg, ip; format: functional; conditions: route intraperitoneal
Rattus norvegicus [8] = assay: Drug discrimination effect in CD Albino rat assessed as percent of rat choosing cocaine lever at 10 mg/kg, ip; format: functional; conditions: route intraperitoneal
Rattus norvegicus [9] = assay: Drug discrimination effect in CD Albino rat assessed as percent of rat choosing cocaine lever at 17 mg/kg, ip; format: functional; conditions: route intraperitoneal
Mus musculus [10] = assay: Activity in CD1 mouse assessed as slight or intermittent stereotypy at 10 mg/kg, ip after 4 hrs; format: functional, organism-based; parameters: dose 10 mg/kg
Mus musculus [11] = assay: Activity in CD1 mouse assessed as stereotypy at 100 mg/kg, ip after 4 hrs; format: functional, organism-based; parameters: dose 100 mg/kg
Mus musculus [12] = assay: Activity in CD1 mouse assessed as circling at 100 mg/kg, ip after 4 hrs; format: functional, organism-based; parameters: dose 100 mg/kg
Mus musculus [13] = assay: Activity in CD1 mouse assessed as convulsions at 100 mg/kg, ip after 4 hrs; format: functional, organism-based; parameters: dose 100 mg/kg
Mus musculus [14] = assay: Activity in CD1 mouse assessed as tremor at 100 mg/kg, ip after 4 hrs; format: functional, organism-based; parameters: dose 100 mg/kg
Mus musculus [15] = assay: Activity in CD1 mouse assessed as hypoactivity at 100 mg/kg, ip after 4 hrs; format: functional, organism-based; parameters: dose 100 mg/kg
[16] = target: Sodium-dependent noradrenaline transporter (Homo sapiens, UniProt P23975); assay: Displacement of [3H]nisoxetine from NET
Mus musculus [17] = assay: Locomotor activity in ip dosed CD1 mouse in peak hour; format: functional
Mus musculus [18] = assay: Locomotor activity in CD1 mouse assessed as stimulation at 3 mg/kg, ip after 1 hr relative to control; format: functional; conditions: route intraperitoneal
Mus musculus [19] = assay: Locomotor activity in CD1 mouse assessed as stimulation at 3 mg/kg, ip after 2 hrs relative to control; format: functional; conditions: route intraperitoneal
Mus musculus [20] = assay: Locomotor activity in CD1 mouse assessed as stimulation at 3 mg/kg, ip after 3 hrs relative to control; format: functional; conditions: route intraperitoneal
Mus musculus [21] = assay: Locomotor activity in CD1 mouse assessed as stimulation at 3 mg/kg, ip after 4 hrs relative to control; format: functional; conditions: route intraperitoneal
Mus musculus [22] = assay: Locomotor activity in CD1 mouse assessed as stimulation at 10 mg/kg, ip after 1 hr relative to control; format: functional; conditions: route intraperitoneal
Mus musculus [23] = assay: Locomotor activity in CD1 mouse assessed as stimulation at 10 mg/kg, ip after 2 hrs relative to control; format: functional; conditions: route intraperitoneal
Mus musculus [24] = assay: Locomotor activity in CD1 mouse assessed as stimulation at 10 mg/kg, ip after 3 hrs relative to control; format: functional; conditions: route intraperitoneal
Mus musculus [25] = assay: Locomotor activity in CD1 mouse assessed as stimulation at 10 mg/kg, ip after 4 hrs relative to control; format: functional; conditions: route intraperitoneal
Mus musculus [26] = assay: Locomotor activity in CD1 mouse assessed as stimulation at 30 mg/kg, ip after 1 hr relative to control; format: functional; conditions: route intraperitoneal
Mus musculus [27] = assay: Locomotor activity in CD1 mouse assessed as stimulation at 30 mg/kg, ip after 2 hrs relative to control; format: functional; conditions: route intraperitoneal
Mus musculus [28] = assay: Locomotor activity in CD1 mouse assessed as stimulation at 30 mg/kg, ip after 3 hrs relative to control; format: functional; conditions: route intraperitoneal
Mus musculus [29] = assay: Locomotor activity in CD1 mouse assessed as stimulation at 30 mg/kg, ip after 4 hrs relative to control; format: functional; conditions: route intraperitoneal
[30] = target: Sodium-dependent serotonin transporter (Homo sapiens, UniProt P31645)
Sodium-dependent serotonin transporter, sequence (P31645 whole entry): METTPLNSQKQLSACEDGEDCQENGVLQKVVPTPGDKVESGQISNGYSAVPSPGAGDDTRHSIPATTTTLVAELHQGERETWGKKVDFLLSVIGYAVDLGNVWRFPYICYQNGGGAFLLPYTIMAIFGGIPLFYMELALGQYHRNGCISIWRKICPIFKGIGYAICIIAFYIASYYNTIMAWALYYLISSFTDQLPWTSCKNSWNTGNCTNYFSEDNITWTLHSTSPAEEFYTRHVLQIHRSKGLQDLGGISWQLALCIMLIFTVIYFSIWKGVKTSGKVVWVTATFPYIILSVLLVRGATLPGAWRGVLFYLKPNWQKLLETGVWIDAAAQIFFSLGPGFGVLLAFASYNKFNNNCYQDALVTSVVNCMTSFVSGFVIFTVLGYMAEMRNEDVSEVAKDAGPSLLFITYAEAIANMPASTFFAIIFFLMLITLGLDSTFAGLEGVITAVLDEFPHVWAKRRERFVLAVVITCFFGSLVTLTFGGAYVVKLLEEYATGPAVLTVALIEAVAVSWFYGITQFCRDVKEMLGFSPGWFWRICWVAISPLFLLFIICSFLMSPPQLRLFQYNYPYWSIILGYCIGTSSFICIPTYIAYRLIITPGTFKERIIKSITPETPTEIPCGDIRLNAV
Description: Displacement of [3H]paroxetine from 5HTT

Sodium-dependent noradrenaline transporter, sequence (P23975 whole entry): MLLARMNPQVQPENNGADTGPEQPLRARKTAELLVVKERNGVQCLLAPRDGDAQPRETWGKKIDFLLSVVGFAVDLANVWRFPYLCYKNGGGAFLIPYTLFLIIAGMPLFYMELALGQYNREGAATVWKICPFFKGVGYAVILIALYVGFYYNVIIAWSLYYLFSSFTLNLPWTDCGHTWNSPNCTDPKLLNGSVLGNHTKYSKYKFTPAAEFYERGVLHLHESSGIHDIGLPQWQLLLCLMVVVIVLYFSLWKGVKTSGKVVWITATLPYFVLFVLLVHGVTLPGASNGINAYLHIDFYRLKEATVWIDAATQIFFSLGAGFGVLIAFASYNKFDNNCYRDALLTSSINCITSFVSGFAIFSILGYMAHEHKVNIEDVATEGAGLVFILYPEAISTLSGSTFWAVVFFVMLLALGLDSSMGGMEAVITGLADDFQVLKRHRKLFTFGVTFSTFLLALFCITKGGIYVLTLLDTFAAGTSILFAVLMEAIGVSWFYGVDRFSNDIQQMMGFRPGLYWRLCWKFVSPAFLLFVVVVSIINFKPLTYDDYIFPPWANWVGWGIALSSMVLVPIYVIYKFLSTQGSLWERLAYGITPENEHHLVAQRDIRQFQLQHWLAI

SMILES: COC(=O)[C@H]1C2CCC(C[C@@H]1c1ccc(F)cc1)N2C (stereo partly specified)
- Activity (Mus musculus [1]): -10%
- Activity (Mus musculus [2]): 5%
- Activity (Mus musculus [3]): 52%
- Activity (Mus musculus [4]): 28%
- ED50 (Rattus norvegicus [5]): 8.01 mg/kg
- Activity (Rattus norvegicus [6]): 0%
- Activity (Rattus norvegicus [7]): 33%
- Activity (Rattus norvegicus [8]): 57%
- Activity (Rattus norvegicus [9]): 100%
- Activity (Mus musculus [10]): Active
- Activity (Mus musculus [11]): Active
- Activity (Mus musculus [12]): Active
- Activity (Mus musculus [13]): Active
- Activity (Mus musculus [14]): Active
- Activity (Mus musculus [15]): Active
- IC50 [16]: 7.2 µM
- Ki [16]: 4.34 µM
- ED50 (Mus musculus [17]): 2.4 mg/kg
- Activity (Mus musculus [18]): 15%
- Activity (Mus musculus [19]): 58%
- Activity (Mus musculus [20]): 120%
- Activity (Mus musculus [21]): 19%
- Activity (Mus musculus [22]): 58%
- Activity (Mus musculus [23]): 107%
- Activity (Mus musculus [24]): 260%
- Activity (Mus musculus [25]): 196%
- Activity (Mus musculus [26]): 24%
- Activity (Mus musculus [27]): 207%
- Activity (Mus musculus [28]): 298%
- Activity (Mus musculus [29]): 127%
- IC50 [30]: > 10 µM
